# Data reported in patent publication US9771334B2, “Triketone compound and preparation method and use thereof” (SHANDONG CYNDA CHEMICAL CO., LTD., priority 2013, dated 2017).
# Legend:
# Assay in all cases: Herbicidal activity, pot culture method (primary and secondary screening test)
# Type in all cases: in vivo
# Details in all cases: primary screening, pot culture, 150 g/ha, sprayed at 3-leaf stage, result 15 days later
# [1] = test system: eclipta prostrata
# In short: (§1)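 Post-emergence pot test: 3-leaf-stage weeds, tower spray of 0.2 g/L solution (DMF stock, water dilution) at 150 g/ha, greenhouse, inhibition (%) scored at 15 days. Secondary screen at a reduced dose.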
# [2] = test system: abutilon theophrasti
# In short: as §1
# [3] = test system: amaranthus retroflexus
# In short: as §1
# [4] = test system: setaria viridis
# In short: as §1
# [5] = test system: digitaria sanguinalis
# In short: as §1
# [6] = test system: echinochloa crusgalli
# In short: as §1
smiles,measurement,setting,value
CCCCn1c(=O)n(-c2ccccc2C)c(=O)c2cc(C(=O)C3=C(O)CC(C)(C)CC3=O)ccc21 [Compound 74],"herbicidal activity inhibition ratio (%), Eclipta prostrata",[1],0%
same,"herbicidal activity inhibition ratio (%), Abutilon theophrasti",[2],50%
same,"herbicidal activity inhibition ratio (%), Amaranthus retroflexus",[3],0%
same,"herbicidal activity inhibition ratio (%), Setaria viridis",[4],10%
same,"herbicidal activity inhibition ratio (%), Digitaria sanguinalis",[5],0%
same,"herbicidal activity inhibition ratio (%), Echinochloa crusgalli",[6],0%
Cc1ccccc1-n1c(=O)c2cc(C(=O)C3=C(O)CCCC3=O)ccc2n(CC(C)C)c1=O [Compound 75],"herbicidal activity inhibition ratio (%), Eclipta prostrata",[1],20%
same,"herbicidal activity inhibition ratio (%), Abutilon theophrasti",[2],90%
same,"herbicidal activity inhibition ratio (%), Amaranthus retroflexus",[3],20%
same,"herbicidal activity inhibition ratio (%), Setaria viridis",[4],10%
same,"herbicidal activity inhibition ratio (%), Digitaria sanguinalis",[5],0%
same,"herbicidal activity inhibition ratio (%), Echinochloa crusgalli",[6],0%
Cc1ccccc1-n1c(=O)c2cc(C(=O)C3=C(O)CC(C)(C)CC3=O)ccc2n(CC(C)C)c1=O [Compound 76],"herbicidal activity inhibition ratio (%), Eclipta prostrata",[1],0%
same,"herbicidal activity inhibition ratio (%), Abutilon theophrasti",[2],20%
same,"herbicidal activity inhibition ratio (%), Amaranthus retroflexus",[3],0%
same,"herbicidal activity inhibition ratio (%), Setaria viridis",[4],10%
same,"herbicidal activity inhibition ratio (%), Digitaria sanguinalis",[5],0%
same,"herbicidal activity inhibition ratio (%), Echinochloa crusgalli",[6],0%
C#CCn1c(=O)n(-c2ccccc2C)c(=O)c2cc(C(=O)C3=C(O)CCCC3=O)ccc21 [Compound 77],"herbicidal activity inhibition ratio (%), Eclipta prostrata",[1],35%
same,"herbicidal activity inhibition ratio (%), Abutilon theophrasti",[2],90%
same,"herbicidal activity inhibition ratio (%), Amaranthus retroflexus",[3],90%
same,"herbicidal activity inhibition ratio (%), Setaria viridis",[4],20%
same,"herbicidal activity inhibition ratio (%), Digitaria sanguinalis",[5],0%
same,"herbicidal activity inhibition ratio (%), Echinochloa crusgalli",[6],50%
C#CCn1c(=O)n(-c2ccccc2C)c(=O)c2cc(C(=O)C3=C(O)CC(C)(C)CC3=O)ccc21 [Compound 78],"herbicidal activity inhibition ratio (%), Eclipta prostrata",[1],0%
same,"herbicidal activity inhibition ratio (%), Abutilon theophrasti",[2],0%
same,"herbicidal activity inhibition ratio (%), Amaranthus retroflexus",[3],0%
same,"herbicidal activity inhibition ratio (%), Setaria viridis",[4],10%
same,"herbicidal activity inhibition ratio (%), Digitaria sanguinalis",[5],0%
same,"herbicidal activity inhibition ratio (%), Echinochloa crusgalli",[6],0%
Cc1ccccc1-n1c(=O)c2cc(C(=O)C3=C(O)CCCC3=O)ccc2n(Cc2ccccc2)c1=O [Compound 79],"herbicidal activity inhibition ratio (%), Eclipta prostrata",[1],0%
same,"herbicidal activity inhibition ratio (%), Abutilon theophrasti",[2],0%
same,"herbicidal activity inhibition ratio (%), Amaranthus retroflexus",[3],0%
same,"herbicidal activity inhibition ratio (%), Setaria viridis",[4],10%
same,"herbicidal activity inhibition ratio (%), Digitaria sanguinalis",[5],0%
same,"herbicidal activity inhibition ratio (%), Echinochloa crusgalli",[6],0%
Cc1ccccc1-n1c(=O)c2cc(C(=O)C3=C(O)CC(C)(C)CC3=O)ccc2n(Cc2ccccc2)c1=O [Compound 80],"herbicidal activity inhibition ratio (%), Eclipta prostrata",[1],0%
same,"herbicidal activity inhibition ratio (%), Abutilon theophrasti",[2],0%
same,"herbicidal activity inhibition ratio (%), Amaranthus retroflexus",[3],0%
same,"herbicidal activity inhibition ratio (%), Setaria viridis",[4],10%
same,"herbicidal activity inhibition ratio (%), Digitaria sanguinalis",[5],0%
same,"herbicidal activity inhibition ratio (%), Echinochloa crusgalli",[6],0%
COc1cccc(Cn2c(=O)n(-c3ccccc3C)c(=O)c3cc(C(=O)C4=C(O)CC(C)(C)CC4=O)ccc32)c1 [Compound 81],"herbicidal activity inhibition ratio (%), Eclipta prostrata",[1],0%
same,"herbicidal activity inhibition ratio (%), Abutilon theophrasti",[2],0%
same,"herbicidal activity inhibition ratio (%), Amaranthus retroflexus",[3],0%
same,"herbicidal activity inhibition ratio (%), Setaria viridis",[4],10%
same,"herbicidal activity inhibition ratio (%), Digitaria sanguinalis",[5],0%
same,"herbicidal activity inhibition ratio (%), Echinochloa crusgalli",[6],0%
Cc1ccccc1-n1c(=O)c2c(C)c(C(=O)C3=C(O)CCCC3=O)ccc2n(C)c1=O [Compound 82],"herbicidal activity inhibition ratio (%), Eclipta prostrata",[1],100%
same,"herbicidal activity inhibition ratio (%), Abutilon theophrasti",[2],100%
same,"herbicidal activity inhibition ratio (%), Amaranthus retroflexus",[3],100%
same,"herbicidal activity inhibition ratio (%), Setaria viridis",[4],100%
same,"herbicidal activity inhibition ratio (%), Digitaria sanguinalis",[5],100%
same,"herbicidal activity inhibition ratio (%), Echinochloa crusgalli",[6],100%
Cc1ccccc1-n1c(=O)c2cc(C(=O)C3=C(O)CCCC3=O)ccc2n(Cc2ccccc2F)c1=O [Compound 83],"herbicidal activity inhibition ratio (%), Eclipta prostrata",[1],90%
same,"herbicidal activity inhibition ratio (%), Abutilon theophrasti",[2],0%
same,"herbicidal activity inhibition ratio (%), Amaranthus retroflexus",[3],0%
same,"herbicidal activity inhibition ratio (%), Setaria viridis",[4],50%
same,"herbicidal activity inhibition ratio (%), Digitaria sanguinalis",[5],30%
same,"herbicidal activity inhibition ratio (%), Echinochloa crusgalli",[6],50%
COc1cccc(Cn2c(=O)n(-c3ccccc3C)c(=O)c3cc(C(=O)C4=C(O)CCCC4=O)ccc32)c1 [Compound 84],"herbicidal activity inhibition ratio (%), Eclipta prostrata",[1],80%
same,"herbicidal activity inhibition ratio (%), Abutilon theophrasti",[2],0%
same,"herbicidal activity inhibition ratio (%), Amaranthus retroflexus",[3],0%
same,"herbicidal activity inhibition ratio (%), Setaria viridis",[4],10%
same,"herbicidal activity inhibition ratio (%), Digitaria sanguinalis",[5],25%
same,"herbicidal activity inhibition ratio (%), Echinochloa crusgalli",[6],50%
Cc1ccccc1-n1c(=O)c2cc(C(=O)C3=C(O)CC(C)(C)CC3=O)ccc2n(Cc2ccccc2F)c1=O [Compound 85],"herbicidal activity inhibition ratio (%), Eclipta prostrata",[1],0%
same,"herbicidal activity inhibition ratio (%), Abutilon theophrasti",[2],0%
same,"herbicidal activity inhibition ratio (%), Amaranthus retroflexus",[3],20%
same,"herbicidal activity inhibition ratio (%), Setaria viridis",[4],10%
same,"herbicidal activity inhibition ratio (%), Digitaria sanguinalis",[5],0%
same,"herbicidal activity inhibition ratio (%), Echinochloa crusgalli",[6],20%
Cc1ccccc1-n1c(=O)c2cc(C(=O)C3=C(O)CCCC3=O)ccc2n(C)c1=S [Compound 86],"herbicidal activity inhibition ratio (%), Eclipta prostrata",[1],30%
same,"herbicidal activity inhibition ratio (%), Abutilon theophrasti",[2],20%
same,"herbicidal activity inhibition ratio (%), Amaranthus retroflexus",[3],0%
same,"herbicidal activity inhibition ratio (%), Setaria viridis",[4],10%
same,"herbicidal activity inhibition ratio (%), Digitaria sanguinalis",[5],30%
same,"herbicidal activity inhibition ratio (%), Echinochloa crusgalli",[6],85%
"Cc1ccccc1-n1c(=O)c2cc(C(=O)C3=C(O)CC(C)(C)CC3=O)ccc2n(C)c1=S [Compound 87, 6-[(2-hydroxy-4,4-dimethyl-6-oxo-1-cyclohexenyl)carbonyl]-1-methyl-2-thio-3-(o-tolyl)-2,3-dihydroxyquinazoline-4(1H)-ketone]","herbicidal activity inhibition ratio (%), Eclipta prostrata",[1],0%
same,"herbicidal activity inhibition ratio (%), Abutilon theophrasti",[2],0%
same,"herbicidal activity inhibition ratio (%), Amaranthus retroflexus",[3],0%
same,"herbicidal activity inhibition ratio (%), Setaria viridis",[4],10%
same,"herbicidal activity inhibition ratio (%), Digitaria sanguinalis",[5],0%
same,"herbicidal activity inhibition ratio (%), Echinochloa crusgalli",[6],25%
COc1ccccc1-n1c(=O)c2c(C)c(C(=O)C3=C(O)CCCC3=O)ccc2n(C)c1=O [Compound 88],"herbicidal activity inhibition ratio (%), Eclipta prostrata",[1],100%
same,"herbicidal activity inhibition ratio (%), Abutilon theophrasti",[2],100%
same,"herbicidal activity inhibition ratio (%), Amaranthus retroflexus",[3],100%
same,"herbicidal activity inhibition ratio (%), Setaria viridis",[4],100%
same,"herbicidal activity inhibition ratio (%), Digitaria sanguinalis",[5],100%
same,"herbicidal activity inhibition ratio (%), Echinochloa crusgalli",[6],100%
CCc1ccccc1-n1c(=O)c2cc(C(=O)C3=C(O)CC(C)(C)CC3=O)ccc2n(C)c1=O [Compound 89],"herbicidal activity inhibition ratio (%), Eclipta prostrata",[1],70%
same,"herbicidal activity inhibition ratio (%), Abutilon theophrasti",[2],100%
same,"herbicidal activity inhibition ratio (%), Amaranthus retroflexus",[3],100%
same,"herbicidal activity inhibition ratio (%), Setaria viridis",[4],75%
same,"herbicidal activity inhibition ratio (%), Digitaria sanguinalis",[5],60%
same,"herbicidal activity inhibition ratio (%), Echinochloa crusgalli",[6],80%
CC1CC(=O)C(C(=O)c2ccc3c(c2)c(=O)n(-c2ccc(Br)cc2)c(=O)n3C)=C(O)C1 (stereo not drawn) [Compound 90],"herbicidal activity inhibition ratio (%), Eclipta prostrata",[1],83%
same,"herbicidal activity inhibition ratio (%), Abutilon theophrasti",[2],92.5%
same,"herbicidal activity inhibition ratio (%), Amaranthus retroflexus",[3],20%
same,"herbicidal activity inhibition ratio (%), Setaria viridis",[4],85%
same,"herbicidal activity inhibition ratio (%), Digitaria sanguinalis",[5],93%
same,"herbicidal activity inhibition ratio (%), Echinochloa crusgalli",[6],90%
"Cc1c(C(=O)C2=C(O)CCCC2=O)ccc2c1c(=O)n(-c1ccccc1C(F)(F)F)c(=O)n2C [Compound 92, 6-[(2-hydroxy-6-oxo-1-cyclohexenyl)carbonyl]-1,5-dimethyl-3-(2-(trifluoromethyl)phenyl)quinazoline-2,4(1H,3H)-dione]","herbicidal activity inhibition ratio (%), Eclipta prostrata",[1],100%
same,"herbicidal activity inhibition ratio (%), Abutilon theophrasti",[2],100%
same,"herbicidal activity inhibition ratio (%), Amaranthus retroflexus",[3],100%
same,"herbicidal activity inhibition ratio (%), Setaria viridis",[4],100%
same,"herbicidal activity inhibition ratio (%), Digitaria sanguinalis",[5],100%
same,"herbicidal activity inhibition ratio (%), Echinochloa crusgalli",[6],100%
Cc1cccc(C)c1-n1c(=O)c2c(C)c(C(=O)C3=C(O)CCCC3=O)ccc2n(C)c1=O [Compound 93],"herbicidal activity inhibition ratio (%), Eclipta prostrata",[1],100%
same,"herbicidal activity inhibition ratio (%), Abutilon theophrasti",[2],100%
same,"herbicidal activity inhibition ratio (%), Amaranthus retroflexus",[3],100%
same,"herbicidal activity inhibition ratio (%), Setaria viridis",[4],100%
same,"herbicidal activity inhibition ratio (%), Digitaria sanguinalis",[5],100%
same,"herbicidal activity inhibition ratio (%), Echinochloa crusgalli",[6],100%
Cn1c(=O)n(-c2c(Cl)cccc2Cl)c(=O)c2cc(C(=O)C3=C(O)CC(C)(C)CC3=O)ccc21 [Compound 94],"herbicidal activity inhibition ratio (%), Eclipta prostrata",[1],98%
same,"herbicidal activity inhibition ratio (%), Abutilon theophrasti",[2],95%
same,"herbicidal activity inhibition ratio (%), Amaranthus retroflexus",[3],95%
same,"herbicidal activity inhibition ratio (%), Setaria viridis",[4],95%
same,"herbicidal activity inhibition ratio (%), Digitaria sanguinalis",[5],88%
same,"herbicidal activity inhibition ratio (%), Echinochloa crusgalli",[6],93%
Cc1cccc(Cl)c1-n1c(=O)c2cc(C(=O)C3=C(O)CCCC3=O)ccc2n(C)c1=O [Compound 95],"herbicidal activity inhibition ratio (%), Eclipta prostrata",[1],70%
same,"herbicidal activity inhibition ratio (%), Abutilon theophrasti",[2],100%
same,"herbicidal activity inhibition ratio (%), Amaranthus retroflexus",[3],100%
same,"herbicidal activity inhibition ratio (%), Setaria viridis",[4],100%
same,"herbicidal activity inhibition ratio (%), Digitaria sanguinalis",[5],90%
same,"herbicidal activity inhibition ratio (%), Echinochloa crusgalli",[6],100%
Cc1cccc(Cl)c1-n1c(=O)c2cc(C(=O)C3=C(O)CC(C)(C)CC3=O)ccc2n(C)c1=O [Compound 96],"herbicidal activity inhibition ratio (%), Eclipta prostrata",[1],83%
same,"herbicidal activity inhibition ratio (%), Abutilon theophrasti",[2],95%
same,"herbicidal activity inhibition ratio (%), Amaranthus retroflexus",[3],100%
same,"herbicidal activity inhibition ratio (%), Setaria viridis",[4],95%
same,"herbicidal activity inhibition ratio (%), Digitaria sanguinalis",[5],30%
same,"herbicidal activity inhibition ratio (%), Echinochloa crusgalli",[6],55%
